According to article PMC8069289 (Molecules, 2021):
Entries after “also recorded” stand apart in the source; their conditions may differ. Marks after values point to notes of the source that are not given here.

How the values were obtained:
[1] = test system: Alu M1 repetitive sequences of HL-60 cells; assay: Methylation status by qMSP, Alu M1; assay type: cell-based, human; details: HL-60, 5 h, 11 mM GLU
Experimental: Then, DNA was extracted similarly to previously described DNA fragmentation assay. After that, the DNA was converted with bisulphite (EZ DNA Methylation-Gold™ Kit, Zymo Research, Irvine, CA, USA). Bisulphite-modified DNA was used for fluorescence-based real-time quantitative Methylation-Specific PCR (qMSP) using 5 µM of each forward and reverse primer (Isogen Life Science BV, Utrecht, The Netherlands), 2 µL of iTaq™ Universal SYBR® Green Supermix (Bio-Rad Laboratories, Inc., Hercules, CA, USA); it contains antibody-mediated hot-start iTaq DNA polymerase, dNTPs, MgCl2, SYBR® Green I dye, enhancers, stabilizers and a blend of passive reference dyes including ROX and fluorescein) and 25 ng of bisulphite converted genomic DNA.
PCR conditions included initial denaturalisation at 95 °C for 3 min and amplification which consisted of 45 cycles at 95 °C for 10 s, 60 °C for 15 s and 72 °C for 15 s, taking picture at the end of each elongation cycle. After that, melting curve was determined increasing 0.5 °C each 0.05 s from 60 °C to 95 °C and taking pictures.
QMSP was carried out in 48 well plates in MiniOpticon Real-Time PCR System (MJ Mini Personal Thermal Cycler, Bio-Rad) and were analysed by Bio-Rad CFX Manager 3.1 Software. The housekeeping Alu-C4 was used as a reference to correct for total DNA input. […] Each sample was analysed in triplicate. […]

Drosophila melanogaster [2] = assay: Antitoxicity assay, combined treatment with 0.15 M H2O2
Experimental: Toxicity was assayed according to our standard protocols. CRB and SFRB were tested at five concentrations: 1, 4, 8.12, 32.5 and 130 mg/mL and 0.16, 0.625, 1.25, 5 and 20 mg/mL, respectively. […] Tested groups consisted of larvae fed with Drosophila Instant Medium (Formula 4–24, Carolina Biological Supply, Burlington, NC, USA) supplemented with the assessed compounds concentrations. Emerging adults of all groups were counted and toxicity was determined as the percentage of hatched individuals in each treatment compared with the negative control.

Drosophila melanogaster [3] = assay: Chronic treatments: lifespan and healthspan assays; assay type: in vivo; details: for Healthspan (80th Percentile) / Mean Lifespan: chronic, mean ±SE; for lifespan compared with concurrent control: all tested concentrations
Experimental: Flies used in the lifespan assays show the same genetic background those used in the genotoxicity assays in order to compare both result. The treated adults consisted of the F1 progeny from mwh and flr^3 parental strains produced by a 24 h eggs-lying in yeast medium. The same compounds and concentrations as in the toxicity/genotoxicity experiments were assayed. Lifespan assays were carried out at 25 °C according to the procedure described by Fernandez-Bedmar et al.. Briefly, synchronized 72 ± 12-h-old trans-heterozygous larvae were washed in distilled water, collected and transferred in groups of 100 individuals into test vials containing 0.85 g Drosophila Instant Medium and 4 mL of the different concentrations of the compounds to be assayed. Emerged adults from pupae were collected under CO2 anaesthesia and placed in groups of 25 individuals of the same sex into sterile vials containing 0.21 g Drosophila Instant Medium and 1 mL of different concentrations of the compounds to be tested. Flies were chronically treated during all their life. The number of survivors was determined twice a week in three different replicates.

[4] = test system: human umbilical endothelial cells; details: 30 mM GLU; cited from earlier work
HL-60 cells = assay: Internucleosomal DNA fragmentation; assay type: cell-based, human; details: HL-60, 5 h, all tested concentrations
Experimental: DNA fragmentation induction was determined as described by Anter et al. (2014). […] After treatment, genomic DNA was extracted using a commercial kit (Blood Genomic DNA Extraction Mini Spin Kit, Canvax Biotech, Córdoba, Spain). Then, DNA was incubated overnight with RNase at 37 °C and quantified in a spectrophotometer (Nanodrop® ND-1000, NanoDrop Technologies, Inc., Wilmington, DE, USA). Finally, 1200 ng DNA were electrophoresed in a 2% agarose gel for 120 min at 50 V, stained with ethidium bromide and visualized under UV light. The apoptosis process is recognised by the appearance of internucleosomal DNA fragments that are multiple of 200 base pairs.

Drosophila melanogaster [5] = assay: Toxicity assay, survival of larvae to adults (simple treatment)
Experimental: Toxicity was assayed according to our standard protocols. […] Tested groups consisted of larvae fed with Drosophila Instant Medium (Formula 4–24, Carolina Biological Supply, Burlington, NC, USA) supplemented with the assessed compounds concentrations. Emerging adults of all groups were counted and toxicity was determined as the percentage of hatched individuals in each treatment compared with the negative control.

Drosophila = details: cited from earlier work
CHO cells = test system: CHO cells; set-up: method as in PMID 7588651; details: 1 mM TAU; cited from earlier work
Drosophila melanogaster [6] = assay: Genotoxicity, wing spot test (SMART); details: simple treatment; for Large Simple Spots (>2 Cells) m = 5 / Small Single Spots (1–2 Cells) m = 2 / Total Spots m = 2: No. of spots in parentheses
Experimental: The wing spot test was performed to evaluate genotoxicity assays following the standard procedure [14]. Briefly, trans-heterozygous larvae for mwh and flr^3 genes were obtained by crossing four day-old virgin flr^3 females with mwh males in a 2:1 ratio. Four days after fertilization, females were allowed to lay eggs in fresh yeast medium (25 g yeast and 4 mL sterile distilled water) for 8 h in order to obtain synchronized larvae. After 72 h, larvae were collected, washed with distilled water, and clustered in groups of 100 individuals. […] Adult flies were collected and stored in 70% ethanol until the wings were removed and mounted on slides using Faure’s solution. Mutant spots were assessed in both dorsal and ventral surfaces of the wings in a bright light microscope at 400× magnification. The frequencies of each type of mutant clone per wing (single, large or twin spot) were compared with the concurrent negative control [43]. All inconclusive and positive results (p > 0.05) were analysed with the nonparametric U-test of Mann, Whitney and Wilcoxon (α = β = 0.05).

calf thymus DNA = test system: calf thymus DNA; set-up: method as in PMID 11787620; details: 5–20 mM TAU; cited from earlier work
[7] = GLU 2.7 mM vs concurrent water control
[8] = GLU 11 mM vs concurrent water control
[9] = GLU 21.86 mM vs concurrent water control
[10] = GLU 87.5 mM vs concurrent water control
[11] = GLU 350 mM vs concurrent water control
[12] = TAU 0.25 mM vs concurrent water control
[13] = TAU 1 mM vs concurrent water control
[14] = TAU 2 mM vs concurrent water control
[15] = TAU 8 mM vs concurrent water control
[16] = TAU 32 mM vs concurrent water control

## OC[C@H]1OC(O)[C@H](O)[C@@H](O)[C@@H]1O (stereo partly drawn) [GLU, Glucose]
[1]
  methylation status of Alu sequences: hypermethylated; also recorded: significantly increased
Drosophila melanogaster [2]; GLU 2.7 mM + 0.15 M hydrogen peroxide
  Survival (%) Combined Treatment: 60%
Drosophila melanogaster [2]; GLU 11 mM + 0.15 M hydrogen peroxide
  Survival (%) Combined Treatment: 84.35 * %
Drosophila melanogaster [2]; GLU 21.86 mM + 0.15 M hydrogen peroxide
  Survival (%) Combined Treatment: 88.65 * %
Drosophila melanogaster [2]; GLU 87.5 mM + 0.15 M hydrogen peroxide
  Survival (%) Combined Treatment: 79 * %
Drosophila melanogaster [2]; GLU 350 mM + 0.15 M hydrogen peroxide
  Survival (%) Combined Treatment: 72 * %
Drosophila melanogaster [3]; 350 mM GLU
  increase of the quality of life (healthspan): 34%
Drosophila melanogaster [3]; [7]
  Healthspan Difference (%): −4.5%
  Mean Lifespan Difference (%): 2.65%
Drosophila melanogaster [3]; GLU 2.7 mM
  Healthspan (80th Percentile): 31.14 ± 1.53 days
  Mean Lifespan: 61.25 ± 2.12 days
Drosophila melanogaster [3]; [8]
  Healthspan Difference (%): 25.65%
  Mean Lifespan Difference (%): 8.76%
Drosophila melanogaster [3]; GLU 11 mM
  Healthspan (80th Percentile): 41 ± 3.4 days
  Mean Lifespan: 64.9 ± 2.05 days
Drosophila melanogaster [3]; [9]
  Healthspan Difference (%): −5.8%
  Mean Lifespan Difference (%): 5.9%
Drosophila melanogaster [3]; GLU 21.86 mM
  Healthspan (80th Percentile): 30.66 ± 3.62 days
  Mean Lifespan: 63.21 ± 2.08 days
Drosophila melanogaster [3]; [10]
  Healthspan Difference (%): −8.4%
  Mean Lifespan Difference (%): 1.39%
Drosophila melanogaster [3]; GLU 87.5 mM
  Healthspan (80th Percentile): 29.9 ± 1.96 days
  Mean Lifespan: 60.5 ± 2.5 days
Drosophila melanogaster [3]; [11]
  Healthspan Difference (%): −34%
  Mean Lifespan Difference (%): −1.2%
Drosophila melanogaster [3]; GLU 350 mM
  Healthspan (80th Percentile): 21.5 ± 0.76 days
  Mean Lifespan: 59 ± 3.1 days
Drosophila melanogaster [3]
  lifespan compared with concurrent control: did not significantly differ
[4]
  cytotoxicity: cytotoxicity was demonstrated
HL-60 cells
  internucleosomal DNA fragmentation (ladder pattern): did not induce DNA fragmentation
Drosophila melanogaster [5]; GLU 2.7 mM
  Survival (%) Simple Treatment: 98%
Drosophila melanogaster [5]; GLU 11 mM
  Survival (%) Simple Treatment: 92.65%
Drosophila melanogaster [5]; GLU 21.86 mM
  Survival (%) Simple Treatment: 90.32%
Drosophila melanogaster [5]; GLU 87.5 mM
  Survival (%) Simple Treatment: 70.3 * %
Drosophila melanogaster [5]; GLU 350 mM
  Survival (%) Simple Treatment: 65 * %

## NCCS(=O)(=O)O [TAU, 2-aminoethanesulfonic acid]
Drosophila; 1.6% TAU
  lifespan of Drosophila: decrease the lifespan
Drosophila; TAU 0.05 to 0.20 M
  adult lifespan of Drosophila: had no influence on adult lifespan
Drosophila; TAU 8–24 mM
  estimated mean values of survival: increased the estimated mean values of survival
Drosophila melanogaster [2]; TAU 0.25 mM + 0.15 M hydrogen peroxide
  Survival (%) Combined Treatment: 40.76%
Drosophila melanogaster [2]; TAU 1 mM + 0.15 M hydrogen peroxide
  Survival (%) Combined Treatment: 57.69 * %
Drosophila melanogaster [2]; TAU 2 mM + 0.15 M hydrogen peroxide
  Survival (%) Combined Treatment: 56.9 * %
Drosophila melanogaster [2]; TAU 8 mM + 0.15 M hydrogen peroxide
  Survival (%) Combined Treatment: 40%
Drosophila melanogaster [2]; TAU 32 mM + 0.15 M hydrogen peroxide
  Survival (%) Combined Treatment: 42.3%
Drosophila melanogaster [3]; [12]
  Healthspan Difference (%): −7.3%
  Mean Lifespan Difference (%): 4.57%
Drosophila melanogaster [3]; TAU 0.25 mM
  Healthspan (80th Percentile): 34.98 ± 3.954 days
  Mean Lifespan: 67.94 ± 2.603 days
Drosophila melanogaster [3]; [13]
  Healthspan Difference (%): −20%
  Mean Lifespan Difference (%): 2.81%
Drosophila melanogaster [3]; TAU 1 mM
  Healthspan (80th Percentile): 30.22 ± 1.878 days
  Mean Lifespan: 66.81 ± 3.215 days
Drosophila melanogaster [3]; [14]
  Healthspan Difference (%): −6.4%
  Mean Lifespan Difference (%): −4.8%
Drosophila melanogaster [3]; TAU 2 mM
  Healthspan (80th Percentile): 35.357 ± 0.9 days
  Mean Lifespan: 61.83 ± 2.25 days
Drosophila melanogaster [3]; [15]
  Healthspan Difference (%): −2.6%
  Mean Lifespan Difference (%): 7.95%
Drosophila melanogaster [3]; TAU 8 mM
  Healthspan (80th Percentile): 36.8 ± 2.832 days
  Mean Lifespan: 70.142 ± 2.385 days
Drosophila melanogaster [3]; [16]
  Healthspan Difference (%): −3.2%
  Mean Lifespan Difference (%): 1.6%
Drosophila melanogaster [3]; TAU 32 mM
  Healthspan (80th Percentile): 36.57 ± 3.55 days
  Mean Lifespan: 66.04 ± 2.055 days
Drosophila melanogaster [3]
  lifespan compared with concurrent control: did not significantly differ
CHO cells
  induction of chromosome aberrations and sister chromatid exchanges: not able to induce neither chromosome aberrations nor sister chromatid exchanges
Drosophila melanogaster [6]; TAU 1 mM
  Twin Spots m = 5: 0 clones per wing
  Large Simple Spots (>2 Cells) m = 5: 0.08 (3) clones per wing
  Small Single Spots (1–2 Cells) m = 2: 0.027 (1) clones per wing
  Total Spots m = 2: 0.108 (4) clones per wing
Drosophila melanogaster [6]; TAU 32 mM
  Twin Spots m = 5: 0 clones per wing
  Large Simple Spots (>2 Cells) m = 5: 0.05 (2) clones per wing
  Small Single Spots (1–2 Cells) m = 2: 0.15 (6) clones per wing
  Total Spots m = 2: 0.2 (8) clones per wing
Calf thymus DNA
  protection of DNA against oxidative damage: DNA-protected concentrations against oxidative damage
HL-60 cells
  internucleosomal DNA fragmentation (ladder pattern): did not induce DNA fragmentation
